Experimental data: paper PMC11237073, “Bisphenol S causes excessive estrogen synthesis by activating FSHR and the downstream cAMP/PKA signaling pathway” (Communications Biology, 2024)

Target: T1, follicle stimulating hormone receptor (FSHR) (Homo sapiens, UniProt P23945)
T1 sequence (P23945 18-695): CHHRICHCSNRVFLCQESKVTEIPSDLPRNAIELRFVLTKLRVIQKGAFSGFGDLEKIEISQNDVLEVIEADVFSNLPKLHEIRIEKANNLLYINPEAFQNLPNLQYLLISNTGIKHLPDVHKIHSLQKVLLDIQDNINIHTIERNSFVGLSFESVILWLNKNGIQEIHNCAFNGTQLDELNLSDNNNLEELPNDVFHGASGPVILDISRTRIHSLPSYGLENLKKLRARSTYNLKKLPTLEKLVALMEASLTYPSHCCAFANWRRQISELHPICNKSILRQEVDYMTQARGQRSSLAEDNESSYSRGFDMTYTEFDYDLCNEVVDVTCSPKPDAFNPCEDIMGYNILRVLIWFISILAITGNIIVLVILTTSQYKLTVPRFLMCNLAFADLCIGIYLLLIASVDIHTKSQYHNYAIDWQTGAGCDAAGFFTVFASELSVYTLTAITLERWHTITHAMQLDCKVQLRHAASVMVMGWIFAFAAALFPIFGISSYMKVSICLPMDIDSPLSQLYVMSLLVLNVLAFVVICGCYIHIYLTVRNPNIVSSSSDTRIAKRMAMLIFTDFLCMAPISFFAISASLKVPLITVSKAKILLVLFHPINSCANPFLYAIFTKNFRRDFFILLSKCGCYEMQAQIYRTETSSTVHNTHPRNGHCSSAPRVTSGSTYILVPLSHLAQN
Assay: isothermal titration calorimetry (Nano ITC, […] BPS into […] FSHR, sequential two-site model)
Conditions: read-out: Value for specific binding site

Compound `O=S(=O)(c1ccc(O)cc1)c1ccc(O)cc1` [BPS, bisphenol S] has a Kd of 183 µM.
